Measured values taken from PMC5007552, “The hVps34‐SGK3 pathway alleviates sustained PI3K/Akt inhibition by stimulating mTORC1 and tumour growth” (The EMBO Journal, 2016).

Experiments:
SGK3 [1] = biological target: T1, SGK3 (Homo sapiens, UniProt Q96BR1); assay: IC50 on recombinant SGK3; assay type: biochemical; conditions: Fig 5B / Appendix Fig S1B, recombinant kinase, unit inferred
T1 sequence (Q96BR1 1-496): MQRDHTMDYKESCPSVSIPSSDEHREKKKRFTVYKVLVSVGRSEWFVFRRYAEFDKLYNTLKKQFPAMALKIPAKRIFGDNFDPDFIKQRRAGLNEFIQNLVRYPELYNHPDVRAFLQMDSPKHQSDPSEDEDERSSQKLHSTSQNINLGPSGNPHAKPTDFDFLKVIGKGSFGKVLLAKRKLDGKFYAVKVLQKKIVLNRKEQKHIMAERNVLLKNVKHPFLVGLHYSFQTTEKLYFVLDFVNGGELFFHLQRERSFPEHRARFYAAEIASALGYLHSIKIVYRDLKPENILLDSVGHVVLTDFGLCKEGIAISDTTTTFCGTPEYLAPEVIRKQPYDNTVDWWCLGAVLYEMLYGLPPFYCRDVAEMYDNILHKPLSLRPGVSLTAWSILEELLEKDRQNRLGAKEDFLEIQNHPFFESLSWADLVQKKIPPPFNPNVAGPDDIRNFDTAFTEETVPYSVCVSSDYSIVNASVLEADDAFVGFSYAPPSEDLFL
Experimental: (§1) The result for each kinase is presented as a mean kinase activity of the reaction taken in triplicate relative to a control reaction where the inhibitors were omitted. […] SGK3 was immunoprecipitated from cell lysates and subjected to in vitro kinase assay by measuring phosphorylation of the Crosstide substrate peptide in the presence of 0.1 mM [γ‐^32P]ATP in a 30 min 30°C reaction (upper panel). Kinase reactions are presented as means ± SD for triplicate reaction.
(§2) Appendix Figure S1. […] (A) Chemical struc tures of
(§3) Sano/f_i-14g, -14i and -14n compounds. (B) IC50 values of inhibitors on indicated recombinant k inases. […]

MLK1 = MLK1 (Homo sapiens, UniProt P80192); assay: IC50 on recombinant MLK1; assay type: biochemical; conditions: Fig 5B / Appendix Fig S1B, recombinant kinase, unit inferred
Chain of MLK1 (P80192 whole entry, species assumed): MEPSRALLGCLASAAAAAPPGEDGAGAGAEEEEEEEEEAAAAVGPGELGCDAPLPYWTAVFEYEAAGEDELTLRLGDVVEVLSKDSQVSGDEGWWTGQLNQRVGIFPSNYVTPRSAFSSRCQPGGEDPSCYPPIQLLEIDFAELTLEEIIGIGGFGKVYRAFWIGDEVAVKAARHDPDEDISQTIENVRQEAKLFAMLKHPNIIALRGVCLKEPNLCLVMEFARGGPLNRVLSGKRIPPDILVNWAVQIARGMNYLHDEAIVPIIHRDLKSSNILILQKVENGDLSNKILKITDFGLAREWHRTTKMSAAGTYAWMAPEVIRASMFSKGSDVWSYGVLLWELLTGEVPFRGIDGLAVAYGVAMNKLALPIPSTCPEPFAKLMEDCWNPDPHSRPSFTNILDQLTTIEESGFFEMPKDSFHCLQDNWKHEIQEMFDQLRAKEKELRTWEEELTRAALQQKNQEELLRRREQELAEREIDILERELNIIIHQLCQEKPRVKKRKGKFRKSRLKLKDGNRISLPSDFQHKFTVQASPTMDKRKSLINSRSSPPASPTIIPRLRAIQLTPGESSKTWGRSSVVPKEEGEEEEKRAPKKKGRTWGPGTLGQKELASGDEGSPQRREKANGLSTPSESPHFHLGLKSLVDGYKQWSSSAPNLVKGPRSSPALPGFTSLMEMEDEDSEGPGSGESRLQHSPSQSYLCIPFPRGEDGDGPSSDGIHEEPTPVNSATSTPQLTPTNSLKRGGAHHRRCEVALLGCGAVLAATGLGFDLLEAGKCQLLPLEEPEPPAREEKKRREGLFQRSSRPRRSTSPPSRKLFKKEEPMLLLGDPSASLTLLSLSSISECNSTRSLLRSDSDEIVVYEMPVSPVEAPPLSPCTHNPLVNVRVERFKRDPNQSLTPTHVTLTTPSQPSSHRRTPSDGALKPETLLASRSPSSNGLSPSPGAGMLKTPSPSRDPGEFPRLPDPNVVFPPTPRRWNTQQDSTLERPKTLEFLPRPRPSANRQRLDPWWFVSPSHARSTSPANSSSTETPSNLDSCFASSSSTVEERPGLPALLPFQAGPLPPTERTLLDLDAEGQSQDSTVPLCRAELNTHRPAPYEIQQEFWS
Experimental: as §1, §2, §3

MLK3 = MLK3 (Homo sapiens, UniProt Q16584); assay: IC50 on recombinant MLK3; assay type: biochemical; conditions: Fig 5B / Appendix Fig S1B, recombinant kinase, unit inferred
Chain of MLK3 (Q16584 whole entry, species assumed): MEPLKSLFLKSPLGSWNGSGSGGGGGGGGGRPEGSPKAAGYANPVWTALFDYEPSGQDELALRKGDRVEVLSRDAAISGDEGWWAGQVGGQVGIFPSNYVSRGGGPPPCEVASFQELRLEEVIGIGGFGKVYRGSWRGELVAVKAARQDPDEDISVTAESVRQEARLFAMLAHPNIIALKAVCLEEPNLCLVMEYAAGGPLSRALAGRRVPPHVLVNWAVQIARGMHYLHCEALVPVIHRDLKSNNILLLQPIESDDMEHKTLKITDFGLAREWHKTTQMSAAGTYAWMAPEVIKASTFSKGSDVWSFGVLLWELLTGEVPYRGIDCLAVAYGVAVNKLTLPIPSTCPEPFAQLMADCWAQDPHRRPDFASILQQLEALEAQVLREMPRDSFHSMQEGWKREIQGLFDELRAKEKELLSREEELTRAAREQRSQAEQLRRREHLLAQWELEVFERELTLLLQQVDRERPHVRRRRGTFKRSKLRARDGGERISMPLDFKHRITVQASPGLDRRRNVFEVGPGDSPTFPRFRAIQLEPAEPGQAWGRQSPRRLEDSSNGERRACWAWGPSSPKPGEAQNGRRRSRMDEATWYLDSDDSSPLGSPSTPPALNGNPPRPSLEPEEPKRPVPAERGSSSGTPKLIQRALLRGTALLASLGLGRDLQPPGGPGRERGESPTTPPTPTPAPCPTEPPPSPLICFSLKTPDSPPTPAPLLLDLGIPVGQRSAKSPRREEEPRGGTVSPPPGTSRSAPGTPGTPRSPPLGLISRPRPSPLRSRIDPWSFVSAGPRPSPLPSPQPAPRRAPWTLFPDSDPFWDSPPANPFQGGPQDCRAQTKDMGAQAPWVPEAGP
Experimental: as §1, §2, §3

PKBa = PKBa (Homo sapiens, UniProt P31749); assay: IC50 on recombinant PKBa (Akt1); assay type: biochemical; conditions: Fig 5B / Appendix Fig S1B, recombinant kinase, unit inferred
Chain of PKBa (P31749 whole entry): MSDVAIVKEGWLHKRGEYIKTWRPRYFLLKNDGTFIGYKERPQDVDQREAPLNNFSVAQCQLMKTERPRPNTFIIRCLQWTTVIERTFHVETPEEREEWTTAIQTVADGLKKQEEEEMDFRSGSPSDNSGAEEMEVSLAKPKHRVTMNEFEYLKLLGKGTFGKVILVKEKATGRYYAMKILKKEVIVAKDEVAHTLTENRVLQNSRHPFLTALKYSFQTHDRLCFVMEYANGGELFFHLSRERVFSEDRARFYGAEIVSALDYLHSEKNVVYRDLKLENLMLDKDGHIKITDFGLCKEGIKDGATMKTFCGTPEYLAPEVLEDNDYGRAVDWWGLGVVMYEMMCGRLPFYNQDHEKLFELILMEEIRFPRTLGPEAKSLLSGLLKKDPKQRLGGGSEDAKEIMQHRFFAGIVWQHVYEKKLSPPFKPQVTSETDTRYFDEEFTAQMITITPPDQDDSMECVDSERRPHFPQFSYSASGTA
Experimental: as §1, §2, §3

S6K1 = S6K1 (Homo sapiens, UniProt P23443); assay: IC50 on recombinant S6K1 (p70S6K); assay type: biochemical; conditions: Fig 5B / Appendix Fig S1B, recombinant kinase, unit inferred
Chain of S6K1 (P23443 whole entry): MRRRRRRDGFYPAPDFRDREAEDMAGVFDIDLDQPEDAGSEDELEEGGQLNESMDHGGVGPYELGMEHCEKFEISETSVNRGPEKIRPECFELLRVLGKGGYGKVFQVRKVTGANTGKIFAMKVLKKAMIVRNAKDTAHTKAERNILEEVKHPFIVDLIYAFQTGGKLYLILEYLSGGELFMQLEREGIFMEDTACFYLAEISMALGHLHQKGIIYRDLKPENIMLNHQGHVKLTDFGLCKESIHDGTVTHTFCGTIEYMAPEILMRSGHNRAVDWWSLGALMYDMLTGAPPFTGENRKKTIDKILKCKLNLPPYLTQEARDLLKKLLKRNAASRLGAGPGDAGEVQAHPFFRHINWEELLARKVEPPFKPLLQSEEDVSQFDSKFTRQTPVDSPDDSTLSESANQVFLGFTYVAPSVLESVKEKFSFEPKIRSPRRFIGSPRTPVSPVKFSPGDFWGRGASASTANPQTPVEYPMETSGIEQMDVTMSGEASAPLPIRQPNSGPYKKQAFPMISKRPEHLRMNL
Experimental: as §1, §2, §3

[2] = tested on: NDRG1 phosphorylation in ZR-75-1 cells; assay: Immunoblot of NDRG1 (Thr346) phosphorylation in breast cancer cells; assay type: cell-based, human; conditions: for concentration reducing NDRG1 phosphorylation to basal levels: ZR-75-1 pre-treated with 1 μM MK-2206 for 5 days, hVps34 inhibitor 1 h; for phosphorylation of PRAS40 (Thr246) and NDRG1 (Thr346): 1 μM, 1 h, ZR-75-1, CAMA-1 (and T47D for PI3K inhibitors)
Experimental: Cell lysates were subjected to immunoblot analysis with the indicated antibodies. • ZR‐75‐1 cells cultured in serum in the absence of Akt inhibitor were treated for 1 h with the indicated concentrations of VPS34‐IN1. […] One hour prior to lysis, the cells were incubated in the presence or absence of 1 μM VPS34‐IN1. SGK3 was immunoprecipitated from lysates and subjected to in vitro kinase assay by measuring phosphorylation of the Crosstide substrate peptide in the presence of 0.1 mM [γ‐^32P]ATP in a 30 min 30°C reaction (upper panel). Kinase reactions are presented as means ± SD for triplicate reaction. Immunoprecipitates (IP) and lysates were analysed by immunoblot with the indicated antibodies. […] SGK3 was immunoprecipitated from the lysates and subjected to in vitro kinase assay as in (C). Kinase reactions are presented as means ± SD for triplicate reaction. Immunoprecipitates (IP) and lysates (lower panel) were also subjected to immunoblot analysis with the indicated antibodies. • ZR‐75‐1 cells were cultured in the absence or presence of 1 μM MK‐2206 for 5 days. Cells were then treated in the absence or presence of 0.1 μM AZD8055 or 0.1 μM rapamycin for 1 h. SGK3 was immunoprecipitated and subjected to in vitro kinase assay as in (C). Kinase reactions are presented as means ± SD for triplicate reaction. The immunoprecipitates (IP) and lysates were analysed with the indicated antibodies.
One hour prior to lysis, the cells were incubated in the presence of absence of 0.3 μM SAR405. SGK3 was immunoprecipitated from lysates and subjected to in vitro kinase assay by measuring phosphorylation of the Crosstide substrate peptide in the presence of 0.1 mM [γ‐^32P]ATP in a 30 min 30°C reaction (upper panel). Kinase reactions are presented as means ± SD for triplicate reaction. Immunoprecipitates (IP) and lysates were also analysed by immunoblot with the indicated antibodies.
as §1
(§4) HEK293 cells were purchased from the American Tissue Culture Collection (ATCC). Cells were cultured in RPMI or DMEM media supplemented with 10% (v/v) foetal bovine serum, 2 mM L‐glutamine, 100 U/ml penicillin and 0.1 mg/ml streptomycin. Inhibitor treatments were carried out as described in figure legends. During 5 days inhibitor treatments, the media was changed after 72‐h intervals. The cells were lysed in buffer containing 50 mM Tris–HCl (pH 7.5), 150 mM NaCl, 1 mM EDTA, 1 mM EGTA, 1 mM sodium orthovanadate, 10 mM sodium glycerophosphate, 10 mM sodium pyrophosphate, 0.27 M sucrose, 0.1% (v/v) 2‐mercaptoethanol, 1 mM benzamidine and 0.1 mM PMSF. Lysates were clarified by centrifugation at 16,000 g for 10 min at 4°C. Protein concentration was calculated using Bradford assay (Thermo Scientific). Immunoblotting and immunoprecipitation were performed using standard procedures. The signal was developed using ECL Western Blotting Detection Kit (Amersham) on Amersham Hyperfilm ECL film (Amersham).

ZR-75-1 cells = assay: Immunoblot of Akt/mTORC1 pathway markers (Akt, PRAS40, TSC2, S6K1, Rictor, S6, 4EBP1) in ZR-75-1 cells; assay type: cell-based, human; conditions: for Akt phosphorylation and PRAS40 phosphorylation: ZR-75-1 in serum, hVps34 inhibitor 1 h
Experimental: Kinase reactions are presented as means ± SD for triplicate reaction. Immunoprecipitates (IP) were also analysed by immunoblot with the indicated antibodies. • SGK3 was knocked down in ZR‐75‐1 cells by using shRNA probe B and compared to a control shRNA probe, named sh scramble. After infection, the cells were kept for 2 days in puromycin selection media and then seeded for the experiment. The cells were treated with 1 μM MK‐2206 for 1 h or 5 days. The cell lysates were subjected to immunoblot analysis with the indicated antibodies.
The cell lysates were analysed by immunoblot using the antibody against phosphorylated Akt phosphorylation consensus motif (RxRxxpS/pT).
as §4

SGK3 [3] = biological target: T1, SGK3; assay: Immunoprecipitated endogenous SGK3 kinase activity (Crosstide) and SGK3 phosphorylation from treated cells; assay type: cell-based; parameters: we immunoprecipitated endogenous SGK3 and assessed protein kinase activity; endogenous in cells; host or cells: ZR-75-1; conditions: for elevated SGK3 kinase activity, T-loop and hydrophobic motif phosphorylation induced by prolonged Class I PI3K or Akt inhibitor treatment: ZR-75-1, 5 days PI3K/Akt inhibitor, then 1 μM VPS34-IN1 or 0.3 μM SAR405 for 1 h; for basal SGK3 activity and phosphorylation: ZR-75-1 in serum, 1 μM VPS34-IN1 or 0.3 μM SAR405; for basal SGK3 activity and phosphorylation / SGK3 hydrophobic motif and T-loop phosphorylation and SGK3 kinase activity: 1 h; for SGK3 hydrophobic motif and T-loop phosphorylation and SGK3 kinase activity: ZR-75-1, 0.1 μM, with or without 5 days 1 μM MK-2206
Experimental: Briefly, SGK3, Akt and S6K1 were immunoprecipitated from 1 mg ZR‐75‐1 cell lysate. Immunoprecipitates were washed in sequence with lysis buffer containing high salt concentration (500 mM NaCl), lysis buffer and Buffer A (50 mM Tris pH 7.5, 0.1 mM EGTA). Kinase activity was assessed by measuring [γ‐^32P]ATP incorporation into Crosstide substrate peptide [[…]]. The reactions were carried in 40 μl total volume containing 0.1 mM [γ‐^32P]ATP (400–1,000 cpm/pmol), 10 mM magnesium acetate and 30 μM Crosstide peptide. Reactions were terminated by adding 10 μl 0.1 M EDTA and spotting 40 μl of the resulting reaction mix on P81 paper, which were immediately immersed into 50 mM orthophosphoric acid. Papers were washed at least five times in 50 mM orthophosphoric acid, rinsed in acetone and air‐dried. Radioactivity was quantified by Cerenkov counting. One unit of enzyme activity was defined as amount of enzyme that catalyses incorporation of 1 nmol of [γ‐^32P]ATP into the substrate over 1 min.

[4] = tested on: breast cancer cells that express high levels of SGK1; assay: NDRG1 phosphorylation in breast cancer cells that express high levels of SGK1; assay type: cell-based; conditions: data not shown

Question: What does the source list for Nc1[nH]nc2nc(-c3ccc(NS(=O)(=O)c4cc(Cl)ccc4F)cc3)cnc12 [14n]?
Answer: IC50 (SGK3 [1]): 13 nM; IC50 (MLK1): 169 nM; IC50 (MLK3): 94 nM; IC50 (PKBa): > 10000 nM; IC50 (S6K1): 76 nM

Question: Which “concentration reducing NDRG1 phosphorylation to basal levels” value [2] does the source give for CC(C)(O)CNc1ncc(-c2ccnc(Nc3ccnc(Cl)c3)n2)c(CC2CC2)n1 [VPS34-IN1] here?
Answer: The value was 1 µM.

Question: What about the “TSC2 or mTORC1 substrate phosphorylation” value (ZR-75-1 cells; ZR-75-1, 1 μM VPS34-IN1 alone, 1 h) of the same compound?
Answer: The value was “did not have an effect”.

Question: What about the “Akt phosphorylation and PRAS40 phosphorylation” value (ZR-75-1 cells) of the same compound?
Answer: The value was “neither compound suppressed”.

Question: And the “elevated SGK3 kinase activity, T-loop and hydrophobic motif phosphorylation induced by prolonged Class I PI3K or Akt inhibitor treatment” value (SGK3 [3])?
Answer: The value was “suppressed”.

Question: And the “basal SGK3 activity and phosphorylation” value (SGK3 [3])?
Answer: Its value is “to below control levels”.

Question: With CO[C@H]1C[C@@H]2CC[C@@H](C)[C@@](O)(O2)C(=O)C(=O)N2CCCC[C@H]2C(=O)O[C@H]([C@H](C)C[C@@H]2CC[C@@H](O)[C@H](OC)C2)CC(=O)[C@H](C)/C=C(\C)[C@@H](O)[C@@H](OC)C(=O)[C@H](C)C[C@H](C)/C=C/C=C/C=C/1C [rapamycin] as the compound, how does the “SGK3 hydrophobic motif and T-loop phosphorylation and SGK3 kinase activity” value (SGK3 [3]) read?
Answer: The value was “had no effect”.

Question: Which “phosphorylation of PRAS40 (Thr246) and NDRG1 (Thr346)” value [2] does the source give for CS(=O)(=O)N1CCN(Cc2cc3nc(-c4cccc5[nH]ncc45)nc(N4CCOCC4)c3s2)CC1 [GDC0941] here?
Answer: The value was “markedly suppressed”.

Question: How did the “dose required to observe marginal reduction in NDRG1 phosphorylation” value [4] turn out when CCc1c(C(=O)NNC(=O)C(O)c2cc(F)cc(F)c2)ccc(O)c1C (stereo not shown) [EMD638683] was run?
Answer: Its value is 100 µM.

Question: C[C@@H]1COCCN1c1cc(=O)n2c(n1)N(Cc1cncc(Cl)c1)[C@H](C(F)(F)F)CC2 [SAR405] was tested. Which “concentration reducing NDRG1 phosphorylation to basal levels” value [2] did it give?
Answer: Its value is 0.3 µM.

Question: And the “Akt phosphorylation and PRAS40 phosphorylation” value (ZR-75-1 cells)?
Answer: Its value is “neither compound suppressed”.

Question: And the “elevated SGK3 kinase activity, T-loop and hydrophobic motif phosphorylation induced by prolonged Class I PI3K or Akt inhibitor treatment” value (SGK3 [3])?
Answer: The value was “suppressed”.

Question: And the “basal SGK3 activity and phosphorylation” value (SGK3 [3])?
Answer: The value was “to below control levels”.

Question: For COc1ccc(-c2ccc3c(N4CCOC[C@@H]4C)nc(N4CCOC[C@@H]4C)nc3n2)cc1CO [AZD8055], which “SGK3 hydrophobic motif and T-loop phosphorylation and SGK3 kinase activity” value (SGK3 [3]) is on record?
Answer: Its value is “suppressed”.

Question: Nc1cc(C(F)(F)F)c(-c2cc(N3CCOCC3)nc(N3CCOCC3)n2)cn1 [BKM120] was tested. Which “phosphorylation of PRAS40 (Thr246) and NDRG1 (Thr346)” value [2] did it give?
Answer: The value was “markedly suppressed”.
